Measured values reported in paper PMC6657216, “Defining the Contribution of CYP1A1 and CYP1A2 to Drug Metabolism Using Humanized CYP1A1/1A2 and Cyp1a1/Cyp1a2 Knockout Mice” (Drug Metabolism and Disposition, 2019).
Where “and” joins values, the source holds several entries; their conditions need not be identical. Equal entries are not always repeated. Where two headings read alike, the source gives them in different places. Marks after values point to notes of the source that are not given here.

Legend:
[1] = Caffeine systemic clearance from published mouse studies; assay type: in vivo
[2] = for CYP1A2 Contribution: 5 mg/kg PO, This study; for AUCinf(obs) (% mean of C57BL/6J ± %S.D.) / CL/F(obs) (% mean of C57BL/6J ± %S.D.) / Cmax (% mean of C57BL/6J ± %S.D.) / V/F(obs) (% mean of C57BL/6J ± %S.D.) / V/F(obs): 5 mg/kg oral; for V/F(obs): mean ± S.D., n = 4
Procedure: (§1) A separate experimental group consisted of mice with conditionally deleted hepatic P450 oxidoreductase ([Henderson et al., 2003]) [hepatic reductase null (HRN) mice]. Whole blood samples from WT and hCYP1A1/1A2 mice were collected at 12, 24, and 40 minutes and 1, 2, 3, 4, 6, and 8 hours after the administration. Whole blood samples from HRN and Cyp1a1/1a2 KO mice were collected at 12, 24, and 40 minutes and 1, 3, 6, 8, 12, and 24 hours postadministration. The collected whole blood samples (10 μl) were mixed with an equal volume of heparin solution in water (15 U/ml), frozen in liquid nitrogen, and stored at −70°C. […] The supernatant was collected, and the centrifugation step was repeated.
(§2) Pharmacokinetic parameters were calculated using Phoenix WinNonlin version 6.4 (Certara, St. Louis, MO).

CYP1A2 = tested on: CYP1A2; set-up: method as in Culm-Merdek et al., 2005; settings: healthy subjects; interaction with fluvoxamine; ref Culm-Merdek et al., 2005; cited from earlier work
in vivo = settings: whole blood, po, 5 mg/kg
Procedure: as §1, §2

[3] = cited from earlier work
[4] = HRN (hepatic reductase null), mouse

## Cn1c(=O)c2c(ncn2C)n(C)c1=O [caffeine]
[1]; C57BL/6J mice, 5 mg/kg PO, against Cyp1a KO clearance, clearance from ref Li et al., 2017
  CYP1A2 Contribution: 39%
[1]; C57BL/6J mice, 5 mg/kg PO, against Cyp1a KO clearance, clearance from ref Scheer et al., 2014
  CYP1A2 Contribution: 61%
[1]; C57BL/6N mice, 2 mg/kg i.p., calculated against CYP1A2^−/− clearance, clearance from ref Buters et al., 1996
  CYP1A2 Contribution: 88%
[1]; CD-1 mice, 20 mg/kg i.p., against Cyp1a KO clearance, clearance from ref Kaplan et al., 1990
  CYP1A2 Contribution: 55%
[1]; CD-1 mice, 40 mg/kg i.p., against Cyp1a KO clearance, clearance from ref Kaplan et al., 1990
  CYP1A2 Contribution: 25%
[1]; CD-COBS mice, 1 mg/kg i.v., against Cyp1a KO clearance, clearance from ref Walton et al., 2001
  CYP1A2 Contribution: 61%
[1]; CYP1A2^−/− mice, 2 mg/kg i.p., clearance from ref Buters et al., 1996
  CYP1A2 Contribution: 0%
[1]; Swiss mice, 20 mg/kg PO, against Cyp1a KO clearance, clearance from ref Samojlik et al., 2016
  CYP1A2 Contribution: 8%
[1]; Swiss mice, 20 mg/kg i.p., against Cyp1a KO clearance, clearance from ref Samojlik et al., 2016
  CYP1A2 Contribution: 28%
[2]; C57BL/6J (WT) mice, against Cyp1a KO clearance
  CYP1A2 Contribution: 68%
[2]; C57BL/6J mice
  AUCinf(obs) (% mean of C57BL/6J ± %S.D.): 100 ± 22%
  CL/F(obs) (% mean of C57BL/6J ± %S.D.): 100 ± 19%
  Cmax (% mean of C57BL/6J ± %S.D.): 100 ± 26%
  V/F(obs) (% mean of C57BL/6J ± %S.D.): 100 ± 39%
  V/F(obs): 1.253 ± 0.494 L/kg
[2]; Cyp1a KO mice
  increase of AUC compared with WT mice: ~3.1 fold
  increase of elimination half-life compared with WT: ~2.5 fold
  CYP1A2 Contribution: 0%
  AUCinf(obs) (% mean of C57BL/6J ± %S.D.): 309 ± 36%
  Cmax (% mean of C57BL/6J ± %S.D.): 167 ± 20%
  V/F(obs) (% mean of C57BL/6J ± %S.D.): 79 ± 15%
  V/F(obs): 0.992 ± 0.188 L/kg
[2]; Cyp1a KO mice, 5 mg/kg
  CL/F(obs) (% mean of C57BL/6J ± %S.D.): 32% and 32 ± 4%
[2]; HRN mice
  increase of AUC compared with WT mice: ~10 fold
  increase of elimination half-life compared with WT: ~8.9 fold
  AUCinf(obs) (% mean of C57BL/6J ± %S.D.): 1004 ± 45%
  Cmax (% mean of C57BL/6J ± %S.D.): 157 ± 33%
  V/F(obs) (% mean of C57BL/6J ± %S.D.): 84 ± 7%
  V/F(obs): 1.057 ± 0.082 L/kg
[2]; HRN mice, 5 mg/kg
  CL/F(obs) (% mean of C57BL/6J ± %S.D.): 9.7 ± 0.42%
[2]; hCYP1A1/1A2 mice
  increase of AUC compared with WT mice: ~1.5 fold
  AUCinf(obs) (% mean of C57BL/6J ± %S.D.): 147 ± 32%
  Cmax (% mean of C57BL/6J ± %S.D.): 129 ± 8%
  V/F(obs) (% mean of C57BL/6J ± %S.D.): 89 ± 4%
  V/F(obs): 1.111 ± 0.055 L/kg
[2]; hCYP1A1/1A2 mice, against Cyp1a KO clearance
  CYP1A2 Contribution: 53%
[2]; hCYP1A1/1A2 mice, 5 mg/kg
  CL/F(obs) (% mean of C57BL/6J ± %S.D.): 68% and 68 ± 13%
[2]; hCYP1A1/1A2 mice, not statistically significant
  increase of elimination half-life compared with WT: ~1.4 fold
CYP1A2
  contribution of CYP1A2 to caffeine metabolism: 93%
In vivo; C57BL/6J, mouse
  AUC(0-inf): 5700 ± 1260 ng·h/mL
  CL/F: 15.1 mL/min/kg
  Cmax: 2380 ± 628 ng/mL
  half-life: 0.94 ± 0.25 h
In vivo; Cyp1a KO, mouse
  AUC(0-inf): 17700 ± 2070 ng·h/mL
  CL/F: 4.77 mL/min/kg
  Cmax: 3990 ± 472 ng/mL
  half-life: 2.39 ± 0.2 h
In vivo; [4]
  AUC(0-inf): 57300 ng·h/mL
  CL/F: 1.45 mL/min/kg
  Cmax: 3740 ± 794 ng/mL
  half-life: 8.4 ± 0.8 h
In vivo; hCYP1A1/1A2, mouse
  AUC(0-inf): 8400 ± 1800 ng·h/mL
  CL/F: 10.2 mL/min/kg
  Cmax: 3080 ± 194 ng/mL
  half-life: 1.3 ± 0.33 h
[3]; C57BL/6J mice, 5 mg/kg PO, calculated from the mean pharmacokinetic profile in Fig. 2 of the publication, ref Li et al., 2017
  Clearance: 472^a ml/(h*kg)
[3]; C57BL/6J mice, 5 mg/kg PO, ref Scheer et al., 2014
  Clearance: 726 mL/h/kg
[3]; C57BL/6N mice, 2 mg/kg i.p., ref Buters et al., 1996
  Clearance: 2268 mL/h/kg
[3]; CD-1 mice, 20 mg/kg i.p., ref Kaplan et al., 1990
  Clearance: 640 mL/h/kg
[3]; CD-1 mice, 40 mg/kg i.p., ref Kaplan et al., 1990
  Clearance: 380 mL/h/kg
[3]; CD-COBS mice, 1 mg/kg i.v., ref Walton et al., 2001
  Clearance: 732 mL/h/kg
[3]; Swiss mice, 20 mg/kg PO, calculated by dividing dose by AUCinf, ref Samojlik et al., 2016
  Clearance: 311^b ml/(h*kg)
[3]; Swiss mice, 20 mg/kg i.p., calculated by dividing dose by AUCinf, ref Samojlik et al., 2016
  Clearance: 398^b ml/(h*kg)
